The record followed here is patent US11518758B2, “Heteroarylaminopyrimidine amide autophagy inhibitors and methods of use thereof” (Deciphera Pharmaceuticals, LLC, priority 2019, dated 2022).

One experiment deals with T1, ULK1 kinase (Homo sapiens, UniProt O75385, E37A/K38A).
T1 construct: (residues 1-283; ID NO: 2); purchased Beryllium
T1 sequence (O75385 1-283 E37A/K38A): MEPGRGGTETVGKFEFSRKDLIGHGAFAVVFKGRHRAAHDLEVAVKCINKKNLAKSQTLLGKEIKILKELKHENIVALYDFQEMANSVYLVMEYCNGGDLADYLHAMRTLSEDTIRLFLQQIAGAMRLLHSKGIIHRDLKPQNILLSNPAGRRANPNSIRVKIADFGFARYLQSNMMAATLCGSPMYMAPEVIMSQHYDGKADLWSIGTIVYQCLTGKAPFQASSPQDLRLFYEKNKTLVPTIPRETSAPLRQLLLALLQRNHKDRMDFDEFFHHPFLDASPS
Briefly: Biochemical assay for ULK1.3 (coupled pyruvate kinase/lactate dehydrogenase assay). The following applies: 0.1 nM ULK1 (from Beryllium), peptide substrate, 1 mM ATP. On the procedure: Example 175. Biochemical Assay for ULK1.3
Activity of ULK1 kinase was determined spectroscopically using a coupled pyruvate kinase/lactate dehydrogenase assay that continuously monitors the ATP hydrolysis-dependent oxidation of NADH (e.g., Schindler et al. Science (2000) 289: 1938-1942). Assays were conducted in 384-well plates (100 uL final volume) using 0.1 nM ULK1 (from Beryllium), 0.075 mM peptide substrate (YANWLAASIYLDGKKK (SEQ ID NO: 5)), 1.5 units pyruvate kinase, 2.1 units lactate dehydrogenase, 1 mM phosphoenol pyruvate, 0.28 mM NADH and 1 mM ATP in assay buffer (100 mM Tris, pH 7.5, 15 mM MgCl2, 0.5 mM DTT, 0.004% (w/v) BSA, and 0.004% Triton X-100). Inhibition of ULK1 was measured by adding serial diluted test compound (final assay concentration of 1% DMSO). A decrease in absorption at 340 nm was monitored continuously for 6 hours at 30° C. on a multi-mode microplate reader (BioTek). The reaction rate was calculated using the 2-3 h time frame. The reaction rate at each concentration of compound was converted to percent inhibition using controls (i.e. reaction with no test compound and reaction with a known inhibitor) and IC50 values were calculated using software routines in Prism (GraphPad software).

A further experiment deals with T2, LRRK2 kinase (Homo sapiens, UniProt Q5S007).
T2 construct: purchased Thermo Fisher
Briefly: Biochemical assay for LRRK2 (coupled pyruvate kinase/lactate dehydrogenase assay). The conditions noted are these: 26.4 nM LRRK2 (residues 970-2528), 0.1 mM peptide substrate, 1 mM ATP.

T2 sequence (Q5S007 with tags, fused parts or gaps): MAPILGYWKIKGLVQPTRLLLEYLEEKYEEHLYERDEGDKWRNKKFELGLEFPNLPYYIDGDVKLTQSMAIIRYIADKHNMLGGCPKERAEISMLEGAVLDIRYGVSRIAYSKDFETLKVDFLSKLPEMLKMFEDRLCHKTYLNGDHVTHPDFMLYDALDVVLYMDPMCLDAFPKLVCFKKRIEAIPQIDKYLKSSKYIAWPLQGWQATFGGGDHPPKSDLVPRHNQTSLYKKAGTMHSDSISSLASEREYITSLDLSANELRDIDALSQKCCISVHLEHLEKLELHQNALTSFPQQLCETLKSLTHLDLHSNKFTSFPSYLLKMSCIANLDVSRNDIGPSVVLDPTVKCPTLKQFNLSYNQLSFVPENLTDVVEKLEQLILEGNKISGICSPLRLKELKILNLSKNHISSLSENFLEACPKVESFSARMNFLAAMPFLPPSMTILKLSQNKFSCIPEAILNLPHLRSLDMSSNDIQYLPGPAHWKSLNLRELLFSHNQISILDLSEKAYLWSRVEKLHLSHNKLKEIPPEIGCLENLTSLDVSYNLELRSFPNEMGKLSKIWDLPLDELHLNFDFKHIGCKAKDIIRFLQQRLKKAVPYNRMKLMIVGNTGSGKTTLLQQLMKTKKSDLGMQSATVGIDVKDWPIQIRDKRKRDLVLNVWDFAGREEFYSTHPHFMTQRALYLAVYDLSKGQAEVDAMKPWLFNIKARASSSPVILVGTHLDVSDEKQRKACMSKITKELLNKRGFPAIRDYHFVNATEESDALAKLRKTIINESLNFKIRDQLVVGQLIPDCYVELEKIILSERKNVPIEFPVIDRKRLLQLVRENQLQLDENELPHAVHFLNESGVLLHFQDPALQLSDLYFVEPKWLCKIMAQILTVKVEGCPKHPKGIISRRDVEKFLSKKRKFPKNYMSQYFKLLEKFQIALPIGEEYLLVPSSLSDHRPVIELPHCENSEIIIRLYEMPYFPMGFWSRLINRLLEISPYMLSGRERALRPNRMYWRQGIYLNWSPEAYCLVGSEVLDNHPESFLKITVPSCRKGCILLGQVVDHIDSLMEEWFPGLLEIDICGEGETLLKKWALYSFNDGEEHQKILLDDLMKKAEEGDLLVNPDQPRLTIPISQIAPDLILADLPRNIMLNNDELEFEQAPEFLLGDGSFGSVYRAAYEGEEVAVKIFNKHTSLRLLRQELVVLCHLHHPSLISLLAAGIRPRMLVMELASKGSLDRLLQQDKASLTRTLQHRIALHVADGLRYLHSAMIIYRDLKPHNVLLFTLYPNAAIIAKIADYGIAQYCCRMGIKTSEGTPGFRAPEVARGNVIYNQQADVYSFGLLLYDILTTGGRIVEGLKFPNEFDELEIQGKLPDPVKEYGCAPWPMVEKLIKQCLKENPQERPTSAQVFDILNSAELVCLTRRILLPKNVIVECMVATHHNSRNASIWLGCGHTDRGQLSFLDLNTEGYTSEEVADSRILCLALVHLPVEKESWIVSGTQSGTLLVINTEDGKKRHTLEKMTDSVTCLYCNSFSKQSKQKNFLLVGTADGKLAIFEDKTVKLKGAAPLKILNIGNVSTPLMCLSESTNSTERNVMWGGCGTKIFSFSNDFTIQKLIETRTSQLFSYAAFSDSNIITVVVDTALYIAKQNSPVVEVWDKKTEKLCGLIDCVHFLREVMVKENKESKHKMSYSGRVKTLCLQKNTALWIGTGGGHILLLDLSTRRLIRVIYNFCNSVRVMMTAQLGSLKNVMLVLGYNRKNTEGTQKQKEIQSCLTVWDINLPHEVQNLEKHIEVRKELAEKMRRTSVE

Regarding `Cc1nn(CCN(C)C)cc1Nc1ncc(C2CC2)c(NCCCN2CCOCCC2=O)n1` [Example 140], the IC50 – broadly, the concentration that inhibits the measured activity by half – against ULK1 kinase is greater than 500 nM; on LRRK2 kinase it was greater than 600 nM.

Turning to `Cc1nn(CCN(C)C)cc1Nc1ncc(Br)c(NCCCN2CCCOCC2=O)n1` [Example 122], the IC50 on ULK1 kinase was 100 to 500 nM; against LRRK2 kinase, 100 to 300 nM. Taken in the same sequence, the figures for `Cc1nn(C2CCN(C)CC2)cc1Nc1ncc(C2CC2)c(NCCCN2CCOCCC2=O)n1` [Example 141] were 100 to 500 nM and greater than 600 nM.

For `Cc1nn(CCCN2CCOCC2)cc1Nc1ncc(C2CC2)c(NCCCN2CCOCCC2=O)n1` [Example 139], the results for the 50% inhibitory concentration (IC50) against ULK1 kinase and against LRRK2 kinase were greater than 500 nM and greater than 600 nM, respectively. On to `Cc1nn(C2CCN(C(C)C)CC2)cc1Nc1ncc(C2CC2)c(NCCCN2CCCOCC2=O)n1` [Example 114], for which the concentration for half-maximal inhibition (IC50) on ULK1 kinase is greater than 500 nM; against LRRK2 kinase it was greater than 600 nM. Taken in the same sequence, the figures for `Cc1nn(CCN(C)C)cc1Nc1ncc(Cl)c(NCCCN2CCCOCC2=O)n1` [Example 123] were greater than 500 nM and greater than 600 nM. The matching figures for `Cc1nn(C(C)(C)C(N)=O)cc1Nc1ncc(C(F)(F)F)c(NCCCN2CCCOCC2=O)n1` [Example 125, 2-methyl-2-(3-methyl-4-((4-((3-(3-oxo-1,4-oxazepan-4-yl)propyl)amino)-5-(trifluoromethyl)pyrimidin-2-yl)amino)-1H-pyrazol-1-yl)propanamide]: greater than 500 nM and 1 to 100 nM. The matching figures for `Cc1nn(CCN(C)C)cc1Nc1ncc(C2CC2)c(NCCCN2CCCOCC2=O)n1` [Example 116]: greater than 500 nM and greater than 600 nM.

As to `Cc1nn(C(C)(C)C#N)cc1Nc1ncc(C(F)(F)F)c(NCCCN2CCCOCC2=O)n1` [Example 172, 2-methyl-2-(3-methyl-4-((4-((3-(3-oxo-1,4-oxazepan-4-yl)propyl)amino)-5-(trifluoromethyl)pyrimidin-2-yl)amino)-1H-pyrazol-1-yl)propanenitrile], the IC50 on ULK1 kinase lay in the range of 100 to 500 nM; against LRRK2 kinase, 1 to 100 nM. In the case of `CCN(CC)CCn1cc(Nc2ncc(C(F)(F)F)c(NCCCN3CCOCCC3=O)n2)c(C)n1` [Example 146], on ULK1 kinase, the IC50 was in the range of 100 to 500 nM. The same measure, in the same setting: the result for `Cc1nn(CCCN2CCOCC2)cc1Nc1ncc(Cl)c(NCCCN2CCCOCC2=O)n1` [Example 120] reads greater than 500 nM. On to `Cc1nn(CCCN2CCOCC2)cc1Nc1ncc(C2CC2)c(NCCCN2CCCOCC2=O)n1` [Example 115], for which the IC50 against ULK1 kinase was greater than 500 nM; against LRRK2 kinase, greater than 600 nM. The matching figures for `CCc1nn(C2CCN(C(C)C)CC2)cc1Nc1ncc(Cl)c(NCCCN2CCCOC2=O)n1` [Example 73]: 100 to 500 nM and 300 to 600 nM.

Turning to `Cc1nn([C@@H]2CCN(C)C2)cc1Nc1ncc(Cl)c(NCCCN2CCCOCC2=O)n1` [Example 113], the IC50 lay in the range of 100 to 500 nM on ULK1 kinase and 100 to 300 nM on LRRK2 kinase. Taken in the same sequence, the figures for `CCc1nn(C2CCN(C(C)C)CC2)cc1Nc1ncc(C2CC2)c(NCCCN2CCOCC2=O)n1` [Example 76] were greater than 500 nM and greater than 600 nM. The matching figures for `Cc1nn(C(C)(C)C(N)=O)cc1Nc1ncc(C(F)(F)F)c(NCCCN2CCOCCC2=O)n1` [Example 145]: 100 to 500 nM and 1 to 100 nM. The matching figures for `Cc1nn(C(C)(C)C(N)=O)cc1Nc1ncc(C(F)(F)F)c(NCCCN2CCCCC2=O)n1` [Example 67]: greater than 500 nM and 1 to 100 nM.

In turn, `CCc1nn(C2CCN(C)CC2)cc1Nc1ncc(C(F)(F)F)c(NCCCN2CCOCCC2=O)n1` [Example 136] showed an IC50 on ULK1 kinase of 1 to 25 nM. For `Cc1nn(C2CCN(C(C)C)CC2)cc1Nc1ncc(C2CC2)c(NCCCN2CCOCC2=O)n1` [Example 75], on ULK1 kinase, the IC50 is greater than 500 nM. With `Cc1cn(C2CCN(C)CC2)nc1Nc1ncc(C(F)(F)F)c(NCCCN2CCCOC2=O)n1` [Example 126], the figures for the IC50 on ULK1 kinase and against LRRK2 kinase were greater than 500 nM and greater than 600 nM, respectively. On ULK1 kinase, `CCc1nn(C2CCN(C)CC2)cc1Nc1ncc(C2CC2)c(NCCCN2CCCOCC2=O)n1` [Example 119] gave an IC50 greater than 500 nM.
